The text below walks through data of article PMC11335512, “The first-in-class pro-apoptotic peptide PEP-010 is effective in monotherapy and in combination with paclitaxel on resistant ovarian adenocarcinoma cell models” (Frontiers in Pharmacology, 2024).

Where only a bound is given, the exact number is not on record here.

What all share (format): cell-based
Assay [1] has as its system IGROV1VCR. The assay can be described thus: MTT assay, IC50 determination of chemotherapies alone or with PEP-010. The note with it: for fold change (FC) vs. IC50 IGROV1: IC50 in IGROV1VCR over IC50 in IGROV1, MTT 72 h; for IC50: 72 h treatment, IGROV1VCR (vincristine-resistant, expresses MDR pumps), drug alone, mean ± SEM, three to six independent biological replicates. The protocol:
(§1) The ovarian cell lines IGROV1, IGROV1CDDP, and IGROV1VCR were cultivated in RPMI 1640 Medium GlutaMAX with 10% FBS and 1% of pyruvate and glutamine. They were maintained at 5% CO2 and 37°C in a humidified atmosphere. All reagents are from Gibco® (Thermo Fisher Scientific, Carlsbad, CA, United States).
(§2) PEP-010 was first dissolved in 0.1% formic acid (10 mM) and then diluted in a cell culture medium at pH9 (to allow a full dissolution of the peptide). Experiments in similar conditions, but without the peptide, were conducted as negative controls. Staurosporine (Selleckchem, Houston, TX, United States) was used as a positive control at a concentration of 1 µM. Cells were collected or analyzed at the indicated time points. For combination conditions, the cells were treated with paclitaxel (Accord, London, United Kingdom) at the indicated concentrations for 72 h.
(§3) Here, 10,000 cells were seeded on 96-well plates in 100 µL of medium. The day after, the medium was replaced with fresh medium containing the appropriate drugs at the indicated concentrations: cisplatin (Mylan, Canonsburg, PA, United States), paclitaxel (Accord, London, United Kingdom), doxorubicin (Pfizer, New York, NY, United States), vincristine [Pfizer, New York, NY, United States)], and/or PEP-010. The plates were incubated at 37° in humidified air with 5% CO2 for 72 h. The MTT reagent (20 µL) was added at the end of the indicated time points, and plates were incubated for 2 h at 37°C. In addition, 100 µL of lysis buffer was added to each well. Subsequently, the plates were incubated for 2 h at 37°C, and the absorbance was measured at 570 nm (Tecan, Männedorf, CH).

Assay [2] concerns IGROV1. As to the kind of experiment: MTT assay, IC50 determination of chemotherapies. The following applies: Homo sapiens, IGROV-1, 72 h treatment, IGROV1 parental, three to six independent biological replicates. The protocol:
as §1, §2, §3

Assay [3] has as its system IGROV1CDDP. As to the kind of experiment: MTT assay, IC50 determination of chemotherapies. The following applies: for IC50: MTT assay, 72 h treatment, IGROV1CDDP (cisplatin-resistant), mean ± SEM, three to six independent biological replicates. On the procedure:
as §1, §2, §3

Assay [4] deals with ovarian adenocarcinoma cell models resistant to different chemotherapies. As to the kind of experiment: Cell death in monotherapy (Annexin-V/Propidium Iodide staining and flow cytometry). The following applies: PEP-010 monotherapy; highest value stated in abstract, dose and cell line not stated there. The protocol: as §2
(§4) Cell death was assessed using Annexin V-APC and propidium iodide (PI) (BioLegend, San Diego, CA, United States) staining following the manufacturer’s instructions. Results were analyzed as previously described ([Debernardi et al., 2018]). A total of 10,000 events were analyzed using a C6 Accuri Cytometer (Becton-Dickinson, Franklin Lakes, NJ, United States), analysis was performed using integrated software, and Annexin V positive cells (PI positive and negative) were counted as apoptotic.
On the technique in general: In flow cytometry, cells or beads pass a laser one at a time.

Assay [5] deals with IGROV1CDDP. As to the kind of experiment: DNA damage, γH2AX immunofluorescence. The note with it: 48 h post-treatment with PEP-010, IGROV1CDDP; untreated control 15.8 ± 2.8; mean ± SEM, three biological replicates. On the procedure: (§5) Cells were seeded on 12 mm coverslips placed in a 24-well plate (24 h, 37°C, and 5% CO2). Cells were treated with PEP-010 as previously described. At the indicated time point, cells were washed with 1X PBS and fixed in 4% paraformaldehyde (Euromedex, Souffelweyersheim, FR) in 1X PBS (10 min, RT), followed by three washes in 1X PBS. Cells were then permeabilized with 2% Triton X-100 (Euromedex, Souffelweyersheim, FR) in 1X PBS (10 min, RT) and then washed in 1X PBS. Cells were saturated with 0.5% BSA (Euromedex, Souffelweyersheim, FR) in 1X PBS (40 min, RT) and then stained with an anti-γH2AX Ser139 antibody (mouse, 1:200, from BioLegend #613402). Incubation with primary antibody (2 h, RT) was followed by three washes in 1X PBS and by incubation (1 h, RT) with a secondary antibody conjugated to Alexa Fluor […] goat anti-mouse (Thermo Fisher Scientific, Carlsbad, CA, United States), diluted 1:200. Coverslips were mounted on microscopy glass slides using a mounting medium containing DAPI (Sigma-Aldrich, Saint-Quentin-Fallavier, Cedex, France). Images were acquired using a fluorescence microscope (Zeiss Observer Z1). Images were analyzed using ImageJ software.

The test system of assay [6] is IGROV1VCR. As to the kind of experiment: DNA damage, γH2AX immunofluorescence. The note with it: 48 h post-treatment with PEP-010, IGROV1VCR; untreated control 20.7 ± 1.7; mean ± SEM, three biological replicates. On the procedure:
as §5

Assay [7] deals with IGROV1. As to the kind of experiment: Apoptosis measurement, Annexin V/PI staining and FACS analysis. The following applies: PEP-010 12.5 µM, 24 h post-treatment, untreated control 11 ± 1.3, mean ± SEM, three independent biological replicates. On the procedure:
as §2, §4

Assay [8] deals with IGROV1CDDP. Described as above. The note with it: PEP-010 12.5 µM, 24 h post-treatment, untreated control 14.6 ± 1.2, mean ± SEM, three independent biological replicates. On the procedure:
as §2, §4

Assay [9] has as its system IGROV1VCR. Described as above. On the procedure: as §2, §4

Regarding `CC(=O)O[C@H]1C(=O)[C@@]2(C)[C@H]([C@H](OC(=O)c3ccccc3)[C@]3(O)C[C@H](OC(=O)[C@H](O)[C@@H](NC(=O)c4ccccc4)c4ccccc4)C(C)=C1C3(C)C)[C@]1(OC(C)=O)CO[C@@H]1C[C@@H]2O` [Paclitaxel, paclitaxel], the “fold change (FC) vs. IC50 IGROV1” value in assay [1] came to 3.9. In addition, the IC50 in [1] (MTT assay) was 2900 nM; in assay [2], 750 nM; in [3], 500 nM.

As for “VKKKKIKAEIKIYVETLDDIFEQWAHSEDL [PEP-010]”, the “cell death in monotherapy, % of cells” value in [4] is listed as “up to 55%”. The “FC, reduction of the IC50 of paclitaxel (PTX alone vs. PTX + PEP-010)” value in assay [1] (MTT assay, 72 h, IGROV1VCR, PEP-010 25 µM) was found to be 2.2. Besides, the “% of γH2AX positive cells” value in assay [5] was 26.5 ± 3.1%; in assay [6], 29.5 ± 2.6%. Besides, the “total % of Annexin V positive cells” value in [7] was found to be 37.4 ± 1.9%; in assay [8] it was 38.7 ± 8.5%; in assay [9] (PEP-010 12.5 µM, 24 h post-treatment, IGROV1VCR, untreated control 12.6 ± 0.9, mean ± SEM, three independent biological replicates), 37 ± 4%. For the same molecule, the “apoptosis, % of cells, combination with paclitaxel” value in assay [9] (PEP-010 in combination with paclitaxel, stated in abstract, doses not given) is given as 87%.

In the case of `COc1cccc2c1C(=O)c1c(O)c3c(c(O)c1C2=O)C[C@@](O)(C(=O)CO)C[C@@H]3O[C@H]1C[C@H](N)[C@H](O)[C@H](C)O1` [Doxorubicin, doxorubicin], the IC50 is greater than 10000 nM in assay [1] (MTT assay), 400 nM in assay [2] and 500 nM in [3].

Turning to `N.N.[Cl][Pt][Cl]` [Cisplatin, cisplatin], the “fold change (FC) vs. IC50 IGROV1” value worked out at 6.5 in [1] and 11.1 in assay [3] (IC50 in IGROV1CDDP over IC50 in IGROV1, MTT 72 h). Further, the IC50 in assay [1] (MTT assay) is 15000 nM; in [3], 25700 nM.

As for `CC[C@]1(O)C[C@H]2CN(CCc3c([nH]c4ccccc34)[C@@](C(=O)OC)(c3cc4c(cc3OC)N(C=O)[C@H]3[C@@](O)(C(=O)OC)[C@H](OC(C)=O)[C@]5(CC)C=CCN6CC[C@]43[C@@H]65)C2)C1` [Vincristine, vincristine], the “fold change (FC) vs. IC50 IGROV1” value in assay [1] turned out to be 97. Besides, the IC50 came out at 3300 nM in assay [1] (MTT assay), 34 nM in [2] and 900 nM in assay [3].

For orientation: IC50 means the concentration needed to halve the response being measured.
